Reference: patent publication US10640547B2, “Immunotherapy against melanoma and other cancers” (IMMATICS BIOTECHNOLOGIES GMBH, priority 2016, dated 2020)

Columns and labels:
[1] = system: CD8+ T cells; assay: In vitro immunogenicity: T-cell priming with artificial APCs loaded with peptide/MHC and anti-CD28, pMHC multimer readout; assay type: cell-based, human; conditions: Table 10B; HLA-A*02 restricted peptides; percentage of positive wells among evaluable
Source text: In order to obtain information regarding the immunogenicity of the TUMAPs of the present invention, the inventors performed investigations using an in vitro T-cell priming assay based on repeated stimulations of CD8+ T cells with artificial antigen presenting cells (aAPCs) loaded with peptide/MHC complexes and anti-CD28 antibody.
In order to perform in vitro stimulations by artificial antigen presenting cells loaded with peptide-MHC complex (pMHC) and anti-CD28 antibody, the inventors first isolated CD8+ T cells from fresh HLA-A*02 leukapheresis products via positive selection using CD8 microbeads (Miltenyi Biotec, Bergisch-Gladbach, Germany) of healthy donors obtained from the University clinics Mannheim, Germany, after informed consent.
PBMCs and isolated CD8+ lymphocytes were incubated in T-cell medium (TCM) until use consisting of RPMI-Glutamax (Invitrogen, Karlsruhe, Germany) supplemented with 10% heat inactivated human AB serum (PAN-Biotech, Aidenbach, Germany), 100 U/ml Penicillin/100 μg/ml Streptomycin (Cambrex, Cologne, Germany), 1 mM sodium pyruvate (CC Pro, Oberdorla, Germany), 20 μg/ml Gentamycin (Cambrex). 2.5 ng/ml IL-7 (PromoCell, Heidelberg, Germany) and 10 U/ml IL-2 (Novartis Pharma, Nürnberg, Germany) were also added to the TCM at this step.
Generation of pMHC/anti-CD28 coated beads, T-cell stimulations and readout was performed in a highly defined in vitro system using four different pMHC molecules per stimulation condition and 8 different pMHC molecules per readout condition.
The purified co-stimulatory mouse IgG2a anti human CD28 Ab 9.3 (Jung et al., 1987) was chemically biotinylated using Sulfo-N-hydroxysuccinimidobiotin as recommended by the manufacturer (Perbio, Bonn, Germany). Beads used were 5.6 μm diameter streptavidin coated polystyrene particles (Bangs Laboratories, Illinois, USA).
800.000 beads/200 μl were coated in 96-well plates in the presence of 4×12.5 ng different biotin-pMHC, washed and 600 ng biotin anti-CD28 were added subsequently in a volume of 200 μl. Stimulations were initiated in 96-well plates by co-incubating 1×10^6 CD8+ T cells with 2×10^5 washed coated beads in 200 μl TCM supplemented with 5 ng/ml IL-12 (PromoCell) for 3 days at 37° C. Half of the medium was then exchanged by fresh TCM supplemented with 80 U/ml IL-2 and incubating was continued for 4 days at 37° C. This stimulation cycle was performed for a total of three times. For the pMHC multimer readout using 8 different pMHC molecules per condition, a two-dimensional combinatorial coding approach was used as previously described (Andersen et al., 2012) with minor modifications encompassing coupling to 5 different fluorochromes. Finally, multimeric analyses were performed by staining the cells with Live/dead near IR dye (Invitrogen, Karlsruhe, Germany), CD8-FITC antibody clone SK1 (BD, Heidelberg, Germany) and fluorescent pMHC multimers. For analysis, a BD LSRII SORP cytometer equipped with appropriate lasers and filters was used. Peptide specific cells were calculated as percentage of total CD8+ cells. Evaluation of multimeric analysis was done using the FlowJo software (Tree Star, Oregon, USA). In vitro priming of specific multimer+CD8+ lymphocytes was detected by comparing to negative control stimulations.

[2] = biological target: HLA-A*02:01 (Homo sapiens, UniProt P04439, D140Y/D185E/D98H/E176V/E277Q/G131W/G231S/I119V/I121R/I166T/I218V/L300P/L318F/N151K/N90K/P208A/P217A/Q86G/Q94H/R138H/R169H/T345S); assay: MHC binding assay (UV-ligand exchange, β2m ELISA); conditions: MHC class I binding score; binding to HLA-A*02:01 ranged by peptide exchange yield (UV-ligand exchange, β2m ELISA)
Procedure, shortened: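 UV-exchange pMHC monomers, 100-fold diluted → streptavidin capture 1 h 37 °C → HRP anti-β2m 2 ug/ml 1 h 37 °C → TMB, A450. Yield from HLA-A*02:01/MLA-001 monomer standard curve, 15-500 ng/ml. Only stably bound peptides keep β2m-containing complexes intact.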

Substance | Peptide exchange [2] | Wells positive [%] [1]
15 (VLYDPVVGC; listed as Homo sapiens) [compound 15] | ++++ (>75% = ++++) | + (<20% = +)
16 (GLFPSNFVTA; listed as Homo sapiens) [compound 16] | ++++ (>75% = ++++) | + (<20% = +)
17 (GVVHGVATV; listed as Homo sapiens) [compound 17] | ++++ (>75% = ++++) | + (<20% = +)
18 (SLADVVDTL; listed as Homo sapiens) [compound 18] | ++++ (>75% = ++++) | + (<20% = +)
20 (VISPHGIASV; listed as Homo sapiens) [compound 20] | ++++ (>75% = ++++) | ++ (20%-49% = ++)
21 (FMYNFQLVTL; listed as Homo sapiens) [compound 21] | ++ (>20% = ++) | + (<20% = +)
31 (FLPRKFPSL; listed as Homo sapiens) [compound 31] | ++++ (>75% = ++++) | ++ (20%-49% = ++)
33 (SLYSYFQKV; listed as Homo sapiens) [compound 33] | ++++ (>75% = ++++) | ++++ (≥70% = ++++)

Now from value to substance, other results behind:

Peptide exchange [2] | Substance | Wells positive [%] [1]
++++ (>75% = ++++) | 34 (YLINFEIRSL; listed as Homo sapiens) [compound 34] | + (<20% = +)
++++ (>75% = ++++) | 116 (LMDETMKEL; listed as Homo sapiens) [compound 116] | + (<20% = +)
++++ (>75% = ++++) | 121 (FLEDLVPYL; listed as Homo sapiens) [compound 121] | +++ (50%-69% = +++)
+++ (>50 = +++) | 128 (ALFPGDVDRL; listed as Homo sapiens) [compound 128] | + (<20% = +)
+++ (>50 = +++) | 133 (ALDPAYTTL; listed as Homo sapiens) [compound 133] | + (<20% = +)
++++ (>75% = ++++) | 155 (GLAGFFASV; listed as Homo sapiens) [compound 155] | ++++ (≥70% = ++++)
++++ (>75% = ++++) | 189 (KALQFLEEV; listed as Homo sapiens) [compound 189] | + (<20% = +)
++++ (>75% = ++++) | 191 (YLDKMNNNI; listed as Homo sapiens) [compound 191] | + (<20% = +)
++++ (>75% = ++++) | 192 (KLFTQIFGV; listed as Homo sapiens) [compound 192] | + (<20% = +)
++++ (>75% = ++++) | 211 (FLPFLTTEV; listed as Homo sapiens) [compound 211] | + (<20% = +)
++++ (>75% = ++++) | 213 (LLDPTNVFI; listed as Homo sapiens) [compound 213] | ++ (20%-49% = ++)
++++ (>75% = ++++) | 232 (KILPDLNTV; listed as Homo sapiens) [compound 232] | + (<20% = +)
